Experimental data: ChEMBL document CHEMBL1201862, “PubChem BioAssay data set” (2004)
The source made the active and inactive calls.

What was measured:
Jurkat = test: antigen receptor-induced NF-kB inhibitors, dose response, Jurkat, luciferase reporter, luminescence, B- and T-cell (AID 489004); assay type: functional, cell-based; settings: Homo sapiens;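 note: NF-kB luciferase reporter Jurkat cells stimulated with PMA plus ionomycin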
[1] = A549 cell cytotoxicity, dose response, cytotoxicity control, plate reader, cherry-pick, antagonist series (AID 743412); assay type: functional, cell-based
Paired box protein Pax-8 = Paired box protein Pax-8 (Homo sapiens, UniProt Q06710); test: inhibitors of PAX8-driven TPO luciferase reporter, dose response, RMG-I cells, cherry-pick (AID 687027); assay type: functional, cell-based;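 note: luciferase reporter driven by Pax8 target thyroperoxidase promoter measured by SteadyGlo luminescence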
[2] = MC4R antagonists, dose response, counter-screen for LGR2 antagonist project, cell-based, plate reader, cherry pick (AID 743444); assay type: functional;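 note: transfected HEK 293 cells stimulated with alpha-MSH peptide; potency of inhibitors of the alpha-MSH evoked signal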
[3] = Shn3 3'UTR reporter inhibitors, dose response, cell-based, Clone20 osteoblasts, firefly luciferase, cherry-picked (AID 624132); assay type: functional;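 note: firefly luciferase luminescence from reporter carrying the Shn3 3'UTR in osteoblasts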
[4] = HepG2 cell cytotoxicity, dose response, cytotoxicity control for Shn3 inhibitor project, CellTiter-Glo, cherry-picked (AID 624134); assay type: functional, cell-based
[5] = HepG2 cell cytotoxicity, dose response, cytotoxicity control, plate reader, cherry-pick, antagonist series (AID 743416); assay type: functional, cell-based
[6] = target: Luciferin 4-monooxygenase (Photinus pyralis, UniProt P08659); test: firefly luciferase enzyme inhibitors, dose response, biochemical, luminescence (AID 1891)
[7] = HEK293 cell cytotoxicity, dose response, cytotoxicity control, plate reader, cherry-picked samples (AID 743446); assay type: functional, cell-based
[8] = non-specific cell cytotoxicity, dose response, cytotoxicity control for PAX8 inhibitor project, plate reader, dry powder samples (AID 743021); assay type: functional, cell-based
[9] = LGR2 antagonists, dose response, cell-based, HEK293, CRE-luciferase reporter, cherry pick, set 2 (AID 743343); assay type: functional;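 note: transfected cells were stimulated with diluted bursicon conditioned medium after compound addition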
[10] = cytotoxicity in HEK-293T NF-kB-Luc cells, dose response, cytotoxicity control for B/T-cell NF-kB inhibitor project, cell-based, uHTS hits (AID 489019); assay type: functional;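 note: IC50 reflects cytotoxicity as loss of cell viability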
[11] = Luminescence Cell-Based Dose Confirmation HTS to Identify Inhibitors of Platelet Dense Granule Release. [Related pubchem assays: 1663 (Primary HTS), 1678 (Summary of Project)]; assay type: functional
Vero = test: cells; assay type: functional, cell-based; settings: Chlorocebus sabaeus
[12] = NIH-3T3 fibroblast cytotoxicity, dose response, cytotoxicity control, cell-based, fluorescence, Alamar Blue, secondary assay (AID 2327); assay type: functional;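 note: NIH-3T3 mouse fibroblasts cultured with fluconazole at 8 µg/mL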
[13] = target: Serine/threonine-protein phosphatase (Candida dubliniensis (strain CD36 / CBS 7987 / NCPF 3949 / NRRLY-17841) (Yeast), UniProt B9W6M3); test: calcineurin pathway inhibitors in yeast reporter, dose response, S. cerevisiae, CDRE-lacZ, luminescence, secondary (AID 2388); assay type: functional, cell-based;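 note: yeast reporter cells carrying a calcineurin-responsive lacZ construct stimulated with calcium chloride; luminescent beta-galactosidase reporter signal in whole cells rather than isolated phosphatase activity; potency for inhibition where a drop in reporter signal means calcineurin blockade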
[14] = target: ATP-dependent molecular chaperone HSP82 (Candida albicans (strain WO-1) (Yeast), UniProt C4YTQ8); test: loss of DOC-induced GRE-beta-galactosidase reporter signal, dose response, Hsp90 inhibitor project, S. cerevisiae, luminescence (AID 2400); assay type: functional, cell-based;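 note: beta-galactosidase luminescence from glucocorticoid response element reporter as proxy for Hsp90 function; inhibitor potency where signal loss means Hsp90 inhibition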
[15] = C. albicans growth with fluconazole, confirmation, fluorescence, retest (AID 2467); assay type: functional, cell-based
HEK293 = test: cells; assay type: functional, cell-based; settings: Homo sapiens
[16] = target: T1, Nuclear receptor subfamily 0 group B member 1 (Homo sapiens, UniProt P51843); test: Luminescence-based cell-based high throughput dose response assay for inhibitors of the orphan nuclear receptor subfamily 0, group B, member 1 (DAX1; NR0B1). [Related pubchem assays (depositor defined):AID504766, AID504790]; assay type: functional
T1 sequence (P51843 whole entry): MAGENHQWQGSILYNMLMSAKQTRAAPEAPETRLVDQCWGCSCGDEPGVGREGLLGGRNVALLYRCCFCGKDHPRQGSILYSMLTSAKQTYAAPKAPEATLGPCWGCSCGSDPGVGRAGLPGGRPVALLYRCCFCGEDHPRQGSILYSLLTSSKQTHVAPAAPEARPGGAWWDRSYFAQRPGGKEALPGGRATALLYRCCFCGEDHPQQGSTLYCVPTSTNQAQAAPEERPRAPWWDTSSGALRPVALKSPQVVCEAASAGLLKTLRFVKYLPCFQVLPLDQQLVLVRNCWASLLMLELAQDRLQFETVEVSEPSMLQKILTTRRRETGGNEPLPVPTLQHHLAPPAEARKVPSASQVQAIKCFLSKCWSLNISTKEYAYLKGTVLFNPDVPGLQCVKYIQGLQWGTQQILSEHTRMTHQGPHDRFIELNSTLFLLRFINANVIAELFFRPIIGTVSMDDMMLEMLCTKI

[17] = target: T2, Endoribonuclease toxin MazF (Escherichia coli K-12, UniProt P0AE70); test: MazF toxin RNase activators, dose response, biochemical, fluorescence, single-stranded RNA substrate, uHTS hits (AID 588481); assay type: functional
T2 sequence (P0AE70 whole entry): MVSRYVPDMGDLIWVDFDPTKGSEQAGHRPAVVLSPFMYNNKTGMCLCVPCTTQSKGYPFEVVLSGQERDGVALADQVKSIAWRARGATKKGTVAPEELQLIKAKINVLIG

A-375 [18] = test: MITF: Counter assay: A375 proliferation Measured in Cell-Based System Using Plate Reader - 2084-03_Inhibitor_Dose_DryPowder_Activity. [Related pubchem assays (depositor defined):AID488944]; assay type: functional; settings: Homo sapiens
A-375 [19] = test: A375 melanoma cell viability reduction, dose response, counter-screen for MITF modulator project, cherry-pick samples, set 2 (AID 540335); assay type: functional, cell-based; settings: Homo sapiens
[20] = target: T3, Microphthalmia-associated transcription factor (Homo sapiens, UniProt O75030); test: TRPM1 promoter luciferase signal decrease, dose response, MITF inhibitor project, cell-based, SK-MEL-5, cherry-picked, set 3 (AID 493073); assay type: functional
T3 sequence (O75030 whole entry): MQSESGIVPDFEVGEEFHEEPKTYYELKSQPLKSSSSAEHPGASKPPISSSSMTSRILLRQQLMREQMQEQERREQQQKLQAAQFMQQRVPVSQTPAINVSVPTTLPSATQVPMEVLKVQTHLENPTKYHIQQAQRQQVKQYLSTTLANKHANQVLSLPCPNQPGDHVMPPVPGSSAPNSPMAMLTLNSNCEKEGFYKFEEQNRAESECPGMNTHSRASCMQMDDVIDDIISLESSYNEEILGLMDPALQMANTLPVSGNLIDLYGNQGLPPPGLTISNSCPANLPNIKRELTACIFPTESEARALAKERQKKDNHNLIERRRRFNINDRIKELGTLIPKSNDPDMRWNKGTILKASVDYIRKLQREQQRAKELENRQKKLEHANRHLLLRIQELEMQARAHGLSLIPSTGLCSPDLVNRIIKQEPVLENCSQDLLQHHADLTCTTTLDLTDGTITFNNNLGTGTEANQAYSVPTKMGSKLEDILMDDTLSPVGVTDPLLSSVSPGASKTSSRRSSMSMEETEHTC

[21] = target: T2, Endoribonuclease toxin MazF; test: fluorescent RNA oligo signal without MazF, dose response, counter-screen for MazEF activator project, biochemical, fluorescence, single-stranded RNase substrate (AID 588502); assay type: functional
[22] = target: T4, Ubiquitin-conjugating enzyme E2 N (Homo sapiens, UniProt P61088); assay type: functional
T4 sequence (P61088 whole entry): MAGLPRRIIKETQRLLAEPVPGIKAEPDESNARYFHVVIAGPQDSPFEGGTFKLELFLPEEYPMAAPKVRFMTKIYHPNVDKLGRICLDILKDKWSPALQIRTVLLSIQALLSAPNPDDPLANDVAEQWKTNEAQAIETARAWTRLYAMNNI

[23] = target: T4, Ubiquitin-conjugating enzyme E2 N; assay type: functional; remark: listed apart in the source
Bcl-2-related protein A1 = target: T5, Bcl-2-related protein A1 (Mus musculus, UniProt Q07440); assay type: functional;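 note: confirmatory dose–response counterscreen on Bfl-1, used to check hits from a UBC13 polyubiquitin inhibitor campaign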
T5 sequence (Q07440 whole entry): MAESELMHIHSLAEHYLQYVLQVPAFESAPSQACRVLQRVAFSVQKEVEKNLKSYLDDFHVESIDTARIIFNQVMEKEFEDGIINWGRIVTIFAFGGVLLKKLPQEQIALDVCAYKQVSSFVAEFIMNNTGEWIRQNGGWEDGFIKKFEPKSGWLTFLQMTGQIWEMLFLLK

Beta-galactosidase = Beta-galactosidase (Escherichia coli, UniProt Q8VNN2); test: PubChem AID 485352; assay type: functional
[24] = growth suppression of PTEN-null colon cells, dose response, cell-based, HCT116 PTEN knockout (AID 1047); assay type: functional;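 note: HCT116 colon tumor cells with PTEN knocked out; cells exposed to compound for 60 hours before readout; potency for loss of cell viability measured by luminescence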
[25] = growth suppression of beta-catenin-knockout colon cells, dose response, cell-based, HCT116, human colon tumor (AID 1045); assay type: functional;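 note: HCT116 colon tumor cells with beta catenin knocked out; cells exposed to compound for 60 hours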
[26] = target: Type-1 angiotensin II receptor (Homo sapiens, UniProt P30556); test: AT1 receptor antagonists, dose response, selectivity assay for APJ receptor antagonist project, cell-based, uHTS hits (AID 463214); assay type: functional;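 note: antagonist potency against angiotensin II stimulated AT1 response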
[27] = inhibitors of SNCA 5'UTR-driven reporter translation, confirmation, H4 neuroglioma cells, luminescence (AID 1988); assay type: functional, cell-based
[28] = inhibitors of firefly luciferase expression or activity, dose response, H4 neuroglioma cells, luminescence (AID 1990); assay type: functional, cell-based
[29] = Luminescence Cell-Based Dose Response HTS to Identify Inhibitors of 5'UTR Stem-Loop Driven Prion Protein mRNA Translation in H4 Neuroglioblastoma Cells. [Related pubchem assays: 1827 (Project Summary), 1813 (Primary HTS)]; assay type: functional

Chain of Serine/threonine-protein phosphatase (B9W6M3 whole entry): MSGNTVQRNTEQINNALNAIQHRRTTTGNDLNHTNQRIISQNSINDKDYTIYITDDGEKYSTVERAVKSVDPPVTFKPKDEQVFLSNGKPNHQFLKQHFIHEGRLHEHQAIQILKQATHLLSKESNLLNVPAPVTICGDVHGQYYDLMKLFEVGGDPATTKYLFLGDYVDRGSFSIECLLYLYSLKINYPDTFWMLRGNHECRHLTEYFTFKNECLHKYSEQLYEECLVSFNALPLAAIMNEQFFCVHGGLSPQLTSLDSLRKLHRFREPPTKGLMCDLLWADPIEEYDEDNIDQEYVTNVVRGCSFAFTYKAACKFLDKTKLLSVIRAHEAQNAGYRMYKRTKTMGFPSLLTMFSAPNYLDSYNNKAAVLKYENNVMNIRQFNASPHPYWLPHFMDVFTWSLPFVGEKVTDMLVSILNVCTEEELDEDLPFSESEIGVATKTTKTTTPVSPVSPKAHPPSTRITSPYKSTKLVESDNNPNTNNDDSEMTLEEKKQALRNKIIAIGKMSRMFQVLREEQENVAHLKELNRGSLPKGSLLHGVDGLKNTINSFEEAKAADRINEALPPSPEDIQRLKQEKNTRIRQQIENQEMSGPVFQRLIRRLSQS
Chain of Beta-galactosidase (Q8VNN2 whole entry): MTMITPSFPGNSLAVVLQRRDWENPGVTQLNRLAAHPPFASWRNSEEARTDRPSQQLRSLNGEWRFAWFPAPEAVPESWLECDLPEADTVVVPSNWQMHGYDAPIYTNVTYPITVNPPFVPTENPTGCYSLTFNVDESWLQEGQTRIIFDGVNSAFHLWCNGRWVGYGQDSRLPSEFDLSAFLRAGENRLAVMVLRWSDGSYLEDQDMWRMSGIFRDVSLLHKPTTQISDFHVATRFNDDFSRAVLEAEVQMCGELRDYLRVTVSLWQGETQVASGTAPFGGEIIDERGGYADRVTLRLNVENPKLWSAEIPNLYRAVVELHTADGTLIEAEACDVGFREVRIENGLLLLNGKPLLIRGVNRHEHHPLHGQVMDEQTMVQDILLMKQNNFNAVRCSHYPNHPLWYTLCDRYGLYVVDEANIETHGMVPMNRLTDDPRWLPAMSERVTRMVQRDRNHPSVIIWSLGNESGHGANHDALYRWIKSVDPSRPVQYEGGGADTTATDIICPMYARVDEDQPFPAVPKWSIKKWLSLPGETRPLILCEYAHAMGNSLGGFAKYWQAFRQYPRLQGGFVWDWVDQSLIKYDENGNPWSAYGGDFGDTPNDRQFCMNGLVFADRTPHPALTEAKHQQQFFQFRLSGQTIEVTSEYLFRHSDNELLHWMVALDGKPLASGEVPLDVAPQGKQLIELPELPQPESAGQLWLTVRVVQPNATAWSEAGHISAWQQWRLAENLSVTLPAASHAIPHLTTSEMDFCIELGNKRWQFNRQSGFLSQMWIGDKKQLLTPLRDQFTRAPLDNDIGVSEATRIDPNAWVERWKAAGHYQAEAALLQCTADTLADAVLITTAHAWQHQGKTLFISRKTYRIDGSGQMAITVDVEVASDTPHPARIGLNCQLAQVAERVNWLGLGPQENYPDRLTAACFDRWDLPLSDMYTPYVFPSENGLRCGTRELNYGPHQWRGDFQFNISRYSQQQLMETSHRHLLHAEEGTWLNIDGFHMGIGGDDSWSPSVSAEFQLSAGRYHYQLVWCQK
Chain of Paired box protein Pax-8 (Q06710 whole entry): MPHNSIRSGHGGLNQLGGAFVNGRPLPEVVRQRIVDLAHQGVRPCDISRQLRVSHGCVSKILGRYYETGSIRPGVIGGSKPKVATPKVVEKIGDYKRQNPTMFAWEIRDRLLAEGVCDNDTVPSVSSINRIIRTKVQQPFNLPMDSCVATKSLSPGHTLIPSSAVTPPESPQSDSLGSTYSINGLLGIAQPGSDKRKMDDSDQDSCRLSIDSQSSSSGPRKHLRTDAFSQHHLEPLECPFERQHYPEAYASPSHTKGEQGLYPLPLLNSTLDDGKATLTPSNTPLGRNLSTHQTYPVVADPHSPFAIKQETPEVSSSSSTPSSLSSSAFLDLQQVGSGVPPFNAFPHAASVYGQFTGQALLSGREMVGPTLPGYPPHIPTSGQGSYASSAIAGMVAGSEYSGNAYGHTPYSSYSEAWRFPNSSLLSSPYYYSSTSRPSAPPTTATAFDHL
Chain of ATP-dependent molecular chaperone HSP82 (C4YTQ8 whole entry): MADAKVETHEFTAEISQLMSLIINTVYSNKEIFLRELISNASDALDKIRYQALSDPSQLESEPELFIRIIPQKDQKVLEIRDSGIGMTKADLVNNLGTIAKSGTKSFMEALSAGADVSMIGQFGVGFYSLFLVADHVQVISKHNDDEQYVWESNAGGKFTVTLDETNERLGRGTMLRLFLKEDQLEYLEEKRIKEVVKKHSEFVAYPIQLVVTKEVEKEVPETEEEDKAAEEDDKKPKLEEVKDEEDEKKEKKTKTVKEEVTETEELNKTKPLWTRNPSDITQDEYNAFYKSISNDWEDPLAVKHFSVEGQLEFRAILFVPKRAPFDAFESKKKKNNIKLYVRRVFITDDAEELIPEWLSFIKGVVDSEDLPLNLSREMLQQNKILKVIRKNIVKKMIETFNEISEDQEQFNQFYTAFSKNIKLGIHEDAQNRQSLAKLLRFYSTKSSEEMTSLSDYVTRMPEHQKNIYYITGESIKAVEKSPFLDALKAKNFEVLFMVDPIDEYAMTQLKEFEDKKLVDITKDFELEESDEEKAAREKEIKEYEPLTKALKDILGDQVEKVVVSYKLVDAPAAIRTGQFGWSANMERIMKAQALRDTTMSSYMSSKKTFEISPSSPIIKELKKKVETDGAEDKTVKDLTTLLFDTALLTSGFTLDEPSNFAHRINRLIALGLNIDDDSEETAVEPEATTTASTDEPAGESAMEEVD
Chain of Type-1 angiotensin II receptor (P30556 whole entry): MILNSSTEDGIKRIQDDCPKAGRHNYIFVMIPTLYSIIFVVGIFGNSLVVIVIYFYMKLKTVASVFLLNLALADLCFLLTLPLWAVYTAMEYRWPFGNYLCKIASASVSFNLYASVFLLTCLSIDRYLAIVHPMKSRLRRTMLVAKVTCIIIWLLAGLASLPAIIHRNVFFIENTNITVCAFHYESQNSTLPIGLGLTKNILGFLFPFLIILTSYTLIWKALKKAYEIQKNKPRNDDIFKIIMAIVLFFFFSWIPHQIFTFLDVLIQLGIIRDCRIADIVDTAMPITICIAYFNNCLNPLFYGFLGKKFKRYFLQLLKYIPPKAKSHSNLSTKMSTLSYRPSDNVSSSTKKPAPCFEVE
Chain of Luciferin 4-monooxygenase (P08659 whole entry): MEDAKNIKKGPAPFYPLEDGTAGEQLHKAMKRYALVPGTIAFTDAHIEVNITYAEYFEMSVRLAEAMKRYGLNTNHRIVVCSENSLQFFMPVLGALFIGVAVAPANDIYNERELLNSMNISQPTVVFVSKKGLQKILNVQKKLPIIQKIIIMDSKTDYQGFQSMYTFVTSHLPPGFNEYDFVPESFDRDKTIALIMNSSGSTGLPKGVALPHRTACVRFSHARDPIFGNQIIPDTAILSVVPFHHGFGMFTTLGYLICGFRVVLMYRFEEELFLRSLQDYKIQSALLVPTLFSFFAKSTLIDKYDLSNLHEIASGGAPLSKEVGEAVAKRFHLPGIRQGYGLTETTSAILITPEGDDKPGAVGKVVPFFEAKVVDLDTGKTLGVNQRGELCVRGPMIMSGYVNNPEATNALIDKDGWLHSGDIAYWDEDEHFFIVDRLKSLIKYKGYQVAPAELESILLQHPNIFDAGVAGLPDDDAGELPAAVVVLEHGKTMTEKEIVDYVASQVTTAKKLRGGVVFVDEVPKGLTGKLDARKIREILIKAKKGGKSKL

COCCn1c(C)cc(C2=NN=C(NC3CC3)SC2)c1C
IC50 (Jurkat): 0.22 µM (active)
AC50 [1]: 22.4 µM (active)
AC50 (Paired box protein Pax-8): < 0.26 µM (active)
AC50 [2]: 0.282 µM (active)
AC50 [3]: < 0.26 µM (active)
AC50 [4]: 46.1 µM (active)
AC50 [5]: 26.7 µM (active)
EC50 [6]: 7.61 µM (active)
AC50 [7]: 29.2 µM (active)
AC50 [8]: 12.1 µM (active)
AC50 [9]: 0.215 µM (active)
IC50 [10]: > 80 µM (inactive)
EC50 [11]: 2.14 µM (active)

COc1cccc2sc(N(CCCN(C)C)C(=O)c3ccc(S(=O)(=O)N4CCCc5ccccc54)cc3)nc12
IC50 (Vero): 24.6 µM (active)

CC(C)Cc1nc2oc3c(O)ncnc3c2c2c1CCCC2
EC50 [12]: > 160 µM (inactive)
EC50 [13]: > 180 µM (inactive)
EC50 [14]: > 150 µM (inactive)
EC50 [15]: 0.891 µM (active)

CCCCNc1cc(=O)n(C)c(=O)[nH]1
IC50 (HEK293): > 67.5 µM (inactive)
IC50 [16]: > 67.5 µM (inactive)

N=c1n(CC(=O)c2ccc([N+](=O)[O-])cc2)c2ccccc2n1Cc1ccccc1
EC50 [17]: > 99 µM (inactive)
AC50 (A-375 [18]): > 11 µM (active)
AC50 (A-375 [19]): > 11 µM (active)
AC50 [20]: 4.83 µM (active)
EC50 [21]: > 99 µM (inactive)

C#CCOCCOCCOCCNc1nc(N2CCN(C(=O)C([C@@H](C)O)n3cc([C@@H](N)CCCCN)nn3)CC2)nc(N2CCN(C(=O)[C@H](CO)n3cc([C@@H](N)C(C)C)nn3)CC2)n1 (stereo partly drawn)
IC50 [22]: 8.01 µM (active)
IC50 [23]: 7.85 µM (active)
IC50 (Bcl-2-related protein A1): > 20 µM (inactive)

COc1ccc(NS(=O)(=O)c2cc([N+](=O)[O-])ccc2N/N=C\c2c(C)[nH]c3ccccc23)cc1
EC50 (Beta-galactosidase): > 40 µM (inactive)
EC50 [24]: 17.6 µM (active)
EC50 [25]: 19.9 µM (active)
IC50 [26]: > 40 µM (not active)

O=C(O)c1ccc(N/N=C/C2=Cc3ccccc3OC2)cc1
IC50 (HEK293): > 67.6 µM (inactive)
IC50 [16]: > 67.6 µM (inactive)

CC1CC2(C)Oc3ccccc3CC2C(C)C1CNCCCN(C)C (stereo not drawn)
EC50 [27]: > 120 µM (not active)
EC50 [28]: > 120 µM (not active)
AC50 (A-375 [18]): 29.8 µM (active)
EC50 [29]: > 120 µM (not active)
